Source: patent publication US12213483B1, “Herbicidal compositions comprising trifludimoxazin” (BASF SE, priority 2024, dated 2025)
Several values for one entry are separate records, joined by “and”; a condition that tells them apart may be missing. Equal entries are not always repeated.

What was measured:
Format in all cases: in vivo
Setaria viridis (SETVI) = assay: Post-emergence application in greenhouse trials, SETVI
Protocol: (§1) In the examples below, using the method of S. R. Colby (1967) “Calculating synergistic and antagonistic responses of herbicide combinations”, Weeds 15, p. 22ff., the value E, which is expected if the activity of the individual active compounds is only additive, was calculated: E=X+Y−(X·Y/100) • where • X=percent activity using active herbicide A at an application rate a; • Y=percent activity using active trifludimoxazin at an application rate b; • E=expected activity (in %) by A+B at application rates a+b.
(§2) If the value found experimentally is higher than the value E calculated according to Colby, a synergistic effect is present.
(§3) The culture containers used were plastic pots containing loamy sand with approximately 3.0% of humus as substrate. The seeds of the test plants were sown separately for each species.
(§4) For the post-emergence treatment, the test plants were grown to a plant height of from 3 to 15 cm, depending on the plant habit, and only then treated with the active compounds which had been suspended or emulsified in water. To this end, the test plants were either sown directly, and grown in the same containers, or they were first grown separately as seedlings and transplanted into the test containers a few days prior to treatment.
(§5) Depending on the species, the plants were kept at 10-25° C. and 20-35° C., respectively.
(§6) The test period extended over 2 to 4 weeks. During this time, the plants were tended and their response to the individual treatments was evaluated.
(§7) Evaluation was carried out using a scale from 0 to 100. 100 means no emergence of the plants, or complete destruction of at least the above-ground parts, and 0 means no damage or normal course of growth. A good herbicidal activity is given at values of at least 70, and very good herbicidal activity is given at values of at least 85.
(§8) In the greenhouse trials, unless indicated otherwise, herbicide A, trifludimoxazin and saflufenacil were formulated (50 g/I) and applied with addition of 1% MSO (methylated seed oil) as adjuvant. The solvent used was water (200 I/ha).

[1] = tested on: Sorghum halapense (SORHA); assay: Post-emergence application in greenhouse trials, SORHA; conditions: 20 DAT; growth stage 14; 0.9 g ai/ha
Protocol: as §1, §2, §3, §4, §5, §6, §7, §8

[2] = tested on: Digitaria sanguinales (DIGSA); assay: Post-emergence application in greenhouse trials, DIGSA; conditions: 7 DAT; GS 12; C-1 0.3 g ai/ha
Protocol: as §1, §2, §3, §4, §5, §6, §7, §8

Kochia scoparia (KCHSC) = assay: Post-emergence application in greenhouse trials, KCHSC
Protocol: as §1, §2, §3, §4, §5, §6, §7, §8

[3] = tested on: Abutilon theophrasti (ABUTH); assay: Post-emergence application in greenhouse trials, ABUTH
Protocol: as §1, §2, §3, §4, §5, §6, §7, §8

[4] = tested on: Lolium multiflorum (LOLMU); assay: Post-emergence application in greenhouse trials, LOLMU; conditions: 20 DAT; growth stage 13; 0.3 g ai/ha
Protocol: as §1, §2, §3, §4, §5, §6, §7, §8

Hordeum vulgare (HORVS) = assay: Post-emergence application in field trials, HORVS; conditions: 29 DAT; water volume 100 l/ha; pre plant burndown; growth stage 15-24; height 25-45 cm; 18 g ai/ha
Protocol: as §1, §2
(§9) On field test sites, natural weed infestation or seeded weeds were treated post-emergence of the weeds.
(§10) In the field trials, the weedy plants were treated as indicated below.
(§11) Herbicide A-1 (342 g/I), trifludimoxazin (500 g/I) and saflufenacil (342 g/I) were, together with addition of 1% MSO (methylated seed oil) as adjuvant (unless indicated otherwise), formulated in water as distribution medium as indicated and sprayed with commercial flat fan nozzles.
(§12) In the following experiments, the herbicidal activity for the individual herbicidal compositions (solo and mixture applications) was assessed at the indicated days after treatment (DAT). The assessments for the damage on undesired weeds caused by the composition was carried out using a scale from 0 to 100%, compared to the untreated control plants. Here, 0 means no damage and 100 means complete destruction of the plants.
(§13) Herbicide A-1 (100 g/l) and trifludimoxazin (500 g/l) were, together with addition of 1% MSO (methylated seed oil) as adjuvant (unless indicated otherwise), formulated in water as distribution medium as indicated and sprayed with commercial flat fan nozzles.

[5] = tested on: Commelina benghalensis (COMBE); assay: Post-emergence application in greenhouse trials, COMBE; conditions: 20 DAT; growth stage 21; 0.9 g ai/ha
Protocol: as §1, §2, §3, §4, §5, §6, §7, §8

Avena fatua (AVEFA) [6] = assay: Post-emergence application in field trials, AVEFA; conditions: 29 DAT; water volume 100 l/ha; pre plant burndown; growth stage 14-23; height 24-40 cm; 18 g ai/ha
Protocol: as §1, §2, §9, §10, §11, §12, §13

Avena fatua (AVEFA) [7] = assay: Post-emergence application in greenhouse trials, AVEFA; conditions: 20 DAT; growth stage 13; 0.3 g ai/ha
Protocol: as §1, §2, §3, §4, §5, §6, §7, §8

CC(C)N(C)S(=O)(=O)NC(=O)c1cc(-n2c(=O)cc(C(F)(F)F)n(C)c2=O)c(F)cc1Cl [C-1, saflufenacil]
% Herbicidal activity (Setaria viridis (SETVI); 7 DAT, GS 14, C-1 0.9 g ai/ha): 35% | % Herbicidal activity (Setaria viridis (SETVI); 20 DAT, growth stage 14, 0.9 g ai/ha): 35% | % Herbicidal activity [1]: 0% | % Herbicidal activity [2]: 10% and 15% | % Herbicidal activity (Kochia scoparia (KCHSC); 6 DAT, GS 33, C-1 0.5 g ai/ha): 60% | % Herbicidal activity (Kochia scoparia (KCHSC); 20 DAT, growth stage 33, 0.5 g ai/ha): 40% | % Herbicidal activity (Kochia scoparia (KCHSC); 20 DAT, growth stage 33, 0.9 g ai/ha): 60% | % Herbicidal activity ([3]; 6 DAT, GS 33, C-1 1.1 g ai/ha): 45% | % Herbicidal activity ([3]; 20 DAT, growth stage 33, 1.1 g ai/ha): 0% | % Herbicidal activity [4]: 0% | % Herbicidal activity (Hordeum vulgare (HORVS)): 0% | % Herbicidal activity [5]: 80% | % Herbicidal activity (Avena fatua (AVEFA) [6]): 0% | % Herbicidal activity (Avena fatua (AVEFA) [7]): 0%
